Values joined by “and” are separate entries in the source; they are usually repeats but may differ in a detail not shown here. Equal entries are not always repeated. Inconclusive results and toxic doses are left out. How the source made its calls: active means survival T/C of 150% or more; inactive means T/C below 125% in these data.
System: P388 leukemia ip, CD2F1 mice, survival T/C
Experiment: NCI In Vivo Anticancer Drug Screen. Data for tumor model P388 Leukemia (intraperitoneal) in CD2F1 (CDF1) mice
Details: endpoint: median survival time, higher = longer survival
Procedure, shortened: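 Mice carrying the transplanted tumor received test compound or vehicle. Survival was recorded in each group, and the value is the treated-group measurement divided by that of the vehicle-treated control group.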

[1] = dose: 50.0 mg/kg/injection, schedule: Q01DX005 (ip), vehicle: Klucel (hydroxypropylcellulose) (HPC)
[2] = dose: 100.0 mg/kg/injection, schedule: Q01DX005 (ip), vehicle: Klucel (hydroxypropylcellulose) (HPC)
[3] = dose: 200.0 mg/kg/injection, schedule: Q01DX005 (ip), vehicle: Klucel (hydroxypropylcellulose) (HPC)
[4] = dose: 60.0 mg/kg/injection, schedule: Q01DX005 (ip), vehicle: saline with Tween-80
[5] = dose: 240.0 mg/kg/injection, schedule: Q01DX005 (ip), vehicle: saline with Tween-80
[6] = dose: 60.0 mg/kg/injection, schedule: Q01DX005 (ip), vehicle: Klucel (hydroxypropylcellulose) (HPC)
[7] = dose: 120.0 mg/kg/injection, schedule: Q01DX005 (ip), vehicle: Klucel (hydroxypropylcellulose) (HPC)
[8] = dose: 12.5 mg/kg/injection, schedule: Q01DX009 (ip), vehicle: saline
[9] = dose: 25.0 mg/kg/injection, schedule: Q01DX009 (ip), vehicle: saline
[10] = dose: 50.0 mg/kg/injection, schedule: Q01DX009 (ip), vehicle: saline
[11] = dose: 25.0 mg/kg/injection, schedule: Q01DX009 (ip), vehicle: saline with Tween-80
[12] = dose: 50.0 mg/kg/injection, schedule: Q01DX009 (ip), vehicle: saline with Tween-80
[13] = dose: 100.0 mg/kg/injection, schedule: Q01DX009 (ip), vehicle: saline with Tween-80
[14] = dose: 200.0 mg/kg/injection, schedule: Q04DX003 (ip), vehicle: saline
[15] = dose: 400.0 mg/kg/injection, schedule: Q04DX003 (ip), vehicle: saline

Measured: T/C

CCOC(=O)/C(=C\c1c(OC(C)=O)cn2c(C)cccc12)C(C)=O
inactive: dose: 100.0 mg/kg/injection, schedule: Q01DX001 (ip), vehicle: saline with Tween-80 98 % of control | dose: 200.0 mg/kg/injection, schedule: Q01DX001 (ip), vehicle: saline with Tween-80 94 % of control | dose: 400.0 mg/kg/injection, schedule: Q01DX001 (ip), vehicle: saline with Tween-80 94 % of control

Cc1cc2c(c(O)cc(=O)n2Cc2ccccc2)c(=O)n1Cc1ccccc1
inactive: [1] 102 % of control | [2] 94 % of control | [3] 100 % of control

CC(C)c1nc2c(n1Cc1ccccc1)C=C(C(=O)c1ccccc1)S(=O)(=O)C(C(=O)c1ccccc1)=C2
inactive: [4] 96 % of control | dose: 120.0 mg/kg/injection, schedule: Q01DX005 (ip), vehicle: saline with Tween-80 90 % of control | [5] 92 % of control

CC(NNC(=S)N1CCCCCC1)c1ccccn1 (stereo not given)
inactive: dose: 12.5 mg/kg/injection, schedule: Q01DX005 (ip), vehicle: Klucel (hydroxypropylcellulose) (HPC) 103 % of control | dose: 25.0 mg/kg/injection, schedule: Q01DX005 (ip), vehicle: Klucel (hydroxypropylcellulose) (HPC) 106 % of control | [1] 112 % of control and 113 % of control

Cc1ccc2[nH]c3nc4cc(C)c(C)cc4nc3c2c1
inactive: dose: 6.25 mg/kg/injection, schedule: Q01DX005 (ip), vehicle: saline with Tween-80 93 % of control | dose: 12.5 mg/kg/injection, schedule: Q01DX005 (ip), vehicle: saline with Tween-80 93 % of control | dose: 25.0 mg/kg/injection, schedule: Q01DX005 (ip), vehicle: saline with Tween-80 87 % of control | dose: 50.0 mg/kg/injection, schedule: Q01DX005 (ip), vehicle: saline with Tween-80 96 % of control | dose: 100.0 mg/kg/injection, schedule: Q01DX005 (ip), vehicle: saline with Tween-80 105 % of control | dose: 200.0 mg/kg/injection, schedule: Q01DX005 (ip), vehicle: saline with Tween-80 108 % of control

CC1=C(S(=O)(=O)c2ccccc2)C(c2ccccc2)N(C)O1 (stereo not given)
inactive: [6] 102 % of control | [7] 103 % of control | dose: 240.0 mg/kg/injection, schedule: Q01DX005 (ip), vehicle: Klucel (hydroxypropylcellulose) (HPC) 98 % of control

COc1ccc(CCN2C=CC(C#N)C(C(C)=O)=C2)cc1OC (stereo not given)
inactive: [1] 99 % of control | [2] 94 % of control | [3] 90 % of control

CN(c1ccccc1)c1c(Cl)c(=O)oc2c1ccc1occc12
inactive: dose: 30.0 mg/kg/injection, schedule: Q01DX005 (ip), vehicle: saline with Tween-80 103 % of control | [4] 106 % of control | dose: 120.0 mg/kg/injection, schedule: Q01DX005 (ip), vehicle: saline 96 % of control | [5] 105 % of control | dose: 240.0 mg/kg/injection, schedule: Q01DX005 (ip), vehicle: saline 103 % of control

CCCCCCCCCCCCS(=O)CC(C)O (stereo not given)
inactive: dose: 25.0 mg/kg/injection, schedule: Q01DX009 (ip), vehicle: saline + Tween-80 + alcohol 99 % of control and 101 % of control | dose: 50.0 mg/kg/injection, schedule: Q01DX009 (ip), vehicle: saline + Tween-80 + alcohol 95 % of control and 97 % of control | dose: 100.0 mg/kg/injection, schedule: Q01DX009 (ip), vehicle: saline + Tween-80 + alcohol 92 % of control and 95 % of control | dose: 200.0 mg/kg/injection, schedule: Q01DX009 (ip), vehicle: saline + Tween-80 + alcohol 99 % of control and 105 % of control | dose: 400.0 mg/kg/injection, schedule: Q01DX009 (ip), vehicle: saline + Tween-80 + alcohol 99 % of control and 107 % of control

CC(C)C(O)(C(=O)OCN1C(=O)C2C3C=CC(C2C1=O)C1C2C(=O)N(COC(=O)C(O)(C(C)C)C(C)O)C(=O)C2C31)C(C)O (stereo not given)
inactive: [8] 110 % of control | [9] 103 % of control | [10] 109 % of control | dose: 100.0 mg/kg/injection, schedule: Q01DX009 (ip), vehicle: saline 115 % of control

CC(=O)[OH+]c1c(I)cc(I)cc1C(=O)[O-].CC(=O)[OH+]c1c(I)cc(I)cc1C(=O)[O-].[Cu+2]
inactive: dose: 15.0 mg/kg/injection, schedule: Q01DX005 (ip), vehicle: saline 106 % of control | dose: 30.0 mg/kg/injection, schedule: Q01DX005 (ip), vehicle: saline 92 % of control | dose: 60.0 mg/kg/injection, schedule: Q01DX005 (ip), vehicle: saline 106 % of control and 109 % of control

CCC(=O)n1c(Cl)c(/C=N/NC(N)=S)c2ccccc21
inactive: dose: 100.0 mg/kg/injection, schedule: Q01DX001 (ip), vehicle: Klucel (hydroxypropylcellulose) (HPC) 95 % of control | dose: 200.0 mg/kg/injection, schedule: Q01DX001 (ip), vehicle: Klucel (hydroxypropylcellulose) (HPC) 100 % of control | dose: 400.0 mg/kg/injection, schedule: Q01DX001 (ip), vehicle: Klucel (hydroxypropylcellulose) (HPC) 93 % of control

O=c1[nH]c2cc([N+](=O)[O-])ccc2nc1/C=C(\O)c1cccc([N+](=O)[O-])c1
inactive: dose: 30.0 mg/kg/injection, schedule: Q01DX005 (ip), vehicle: Klucel + Tween-80 96 % of control | dose: 60.0 mg/kg/injection, schedule: Q01DX005 (ip), vehicle: Klucel + Tween-80 88 % of control and 90 % of control | dose: 120.0 mg/kg/injection, schedule: Q01DX005 (ip), vehicle: Klucel + Tween-80 87 % of control | dose: 240.0 mg/kg/injection, schedule: Q01DX005 (ip), vehicle: Klucel + Tween-80 89 % of control

C=CCN(CC=C)C(CC(=O)C(C)(C)C)=NCC
inactive: [8] 104 % of control | [9] 106 % of control | [10] 100 % of control and 101 % of control

CN1C(=O)CC(Sc2ccccc2)c2ccccc21 (stereo not given)
inactive: [11] 96 % of control | [12] 97 % of control | [13] 93 % of control

O=C(C=C(C(F)(F)Cl)C(F)(F)Cl)c1cccs1
inactive: dose: 2.5 mg/kg/injection, schedule: Q04DX003 (ip), vehicle: saline 95 % of control | dose: 5.0 mg/kg/injection, schedule: Q04DX003 (ip), vehicle: saline 100 % of control | dose: 10.0 mg/kg/injection, schedule: Q04DX003 (ip), vehicle: saline 100 % of control

CC1CCCCN1CC(C)(C)C (stereo not given)
inactive: [6] 100 % of control | [7] 93 % of control

COC(=O)C(F)C(N)C(=O)O (stereo not given)
inactive: dose: 12.5 mg/kg/injection, schedule: Q04DX003 (ip), vehicle: saline with Tween-80 100 % of control | dose: 25.0 mg/kg/injection, schedule: Q04DX003 (ip), vehicle: saline with Tween-80 101 % of control | dose: 50.0 mg/kg/injection, schedule: Q04DX003 (ip), vehicle: saline with Tween-80 99 % of control | [14] 103 % of control | [15] 90 % of control

CNC(=O)c1ccccc1NC(=O)CCC(=O)O
inactive: dose: 100.0 mg/kg/injection, schedule: Q04DX003 (ip), vehicle: saline 100 % of control | [14] 99 % of control | [15] 100 % of control

COc1ccc2nc3cc(Cl)ccc3c(Nc3ccccc3NC(C)=O)c2n1
inactive: dose: 12.5 mg/kg/injection, schedule: Q01DX009 (ip), vehicle: water 116 % of control | dose: 25.0 mg/kg/injection, schedule: Q01DX009 (ip), vehicle: water 116 % of control | dose: 50.0 mg/kg/injection, schedule: Q01DX009 (ip), vehicle: water 119 % of control | dose: 100.0 mg/kg/injection, schedule: Q01DX009 (ip), vehicle: water 114 % of control | dose: 200.0 mg/kg/injection, schedule: Q01DX009 (ip), vehicle: water 115 % of control

CCCCCC(CN1CCCCC1)C(=O)/C=C/c1ccccc1 (stereo not given)
inactive: [11] 101 % of control | [12] 107 % of control | [13] 117 % of control

Reference: PubChem BioAssay AID330 (DTP/NCI, 2004)
